Results reported in DBAASP.
≈ marks a conversion by molar mass, not a printed value. Where “and” joins values, the source holds several entries; their conditions need not be identical. Identical values can stand only once. Each block holds one compound with its values, some of them ahead of it.

Experiments:
Experiment in all cases: ≥ marks a high value that may be exact or a test limit, other limits are often not marked, values filed in µg/mL are converted to µM
[1] = test system: Bacillus subtilis 168 HT
[2] = test system: Escherichia coli MG1655
[3] = test system: Candida albicans NCPF 1467
[4] = test system: Staphylococcus aureus NCTC 10788
[5] = test system: Escherichia coli NCTC 10418
[6] = test system: Escherichia coli ATCC 35218
[7] = test system: Escherichia coli ATCC 11229
[8] = test system: Staphylococcus epidermidis ATCC 12228
[9] = test system: Staphylococcus aureus ATCC 25923
[10] = test system: Staphylococcus aureus ATCC 33591
[11] = test system: Staphylococcus aureus ATCC 29213
[12] = test system: Pseudomonas aeruginosa ATCC 27853
[13] = test system: Klebsiella pneumoniae ATCC 13866
[14] = test system: Pasteurella multocida
[15] = test system: Candida albicans SC5314
[16] = test system: Candida albicans ATCC 90028
[17] = test system: Candida parapsilosis ATCC 22019
[18] = test system: Streptococcus uberis
[19] = test system: Bacillus cereus
[20] = test system: Escherichia coli
[21] = test system: Staphylococcus aureus
[22] = test system: Candida krusei ATCC 6258
[23] = test system: Micrococcus luteus
[24] = test system: Batrachochytrium dendrobatidis
[25] = test system: Leuconostoc lactis
[26] = test system: Staphylococcus epidermidis
[27] = test system: Listeria innocua
[28] = test system: Bacillus subtilis KCTC 2217
[29] = test system: Acinetobacter baumannii KCTC 2508
[30] = test system: Candida albicans NBRC 1385
[31] = test system: Porphyromonas gingivalis ATCC 33277
[32] = test system: Streptococcus mutans JCM 5705
[33] = test system: Cutibacterium acnes JCM 6473
[34] = test system: Staphylococcus aureus ATCC 2592
[35] = test system: Escherichia coli ATCC 25922
[36] = test system: Bacillus subtilis

SMILES: CC[C@H](C)[C@H](NC(=O)[C@@H](NC(=O)CN)C(C)C)C(=O)N[C@@H](CC(=O)O)C(=O)N[C@@H](C)C(=O)N[C@@H](C)C(=O)N[C@@H](CCCCN)C(=O)N[C@@H](CCCCN)C(=O)N[C@@H](Cc1c[nH]c2ccccc12)C(=O)N[C@@H](CC(N)=O)C(=O)N[C@H](C(=O)N[C@@H](CC(C)C)C(=O)N[C@@H](CCCCN)C(=O)N[C@@H](CC(N)=O)C(=O)N[C@@H](CC(C)C)C(=O)N[C@@H](Cc1ccccc1)C(N)=O)C(C)C [GVIDAAKKVVNVLKNLF]
- MIC [14]: 27.3 µM (≈ 49.6 µg/mL)
- MIC [15]: ≥ 35 µM
- MIC [16]: ≥ 70 µM
- MIC [17]: ≥ 70 µM
- MIC [18]: 6.56 µM (≈ 11.9 µg/mL)
- MIC [19]: 13.7 µM (≈ 24.8 µg/mL)
- MIC [20]: 54.7 µM (≈ 99.3 µg/mL)
- MIC [21]: 13.7 µM (≈ 24.8 µg/mL)
- MIC [22]: ≥ 35 µM
- MIC [23]: 27.3 µM (≈ 49.6 µg/mL)
- MIC [24]: ≥ 100 µM
- MIC [25]: 1.64 µM (≈ 2.98 µg/mL)
- MIC [26]: 6.56 µM (≈ 11.9 µg/mL)
- MIC [27]: 27.3 µM (≈ 49.6 µg/mL)

SMILES: CC(C)C[C@H](NC(=O)[C@H](CCCCN)NC(=O)[C@H](CCCCN)NC(=O)[C@H](CC(C)C)NC(=O)[C@H](CC(C)C)NC(=O)[C@H](CCCCN)NC(=O)[C@H](CCCCN)NC(=O)[C@H](CC(C)C)NC(=O)[C@H](CC(C)C)NC(=O)[C@@H]1CCCN1C(=O)[C@H](CCCCN)NC(=O)[C@H](CCCCN)NC(=O)[C@H](CC(C)C)NC(=O)[C@H](CC(C)C)NC(=O)[C@H](CCCCN)NC(=O)[C@@H](N)CCCCN)C(N)=O [KKLLKKPLLKKLLKKL]
- MIC [28]: 1.56 µM (≈ 3.01 µg/mL)
- MIC [29]: 3.13 µM (≈ 6.05 µg/mL)
- MIC [9]: 1.56 µM and > 0.78 µM

SMILES: CC(C)C[C@H](NC(=O)[C@H](CCCCN)NC(=O)[C@H](CCCCN)NC(=O)[C@H](CC(C)C)NC(=O)[C@H](CC(C)C)NC(=O)[C@H](CCCCN)NC(=O)[C@H](CCCCN)NC(=O)[C@H](CC(C)C)NC(=O)[C@H](CC(C)C)NC(=O)[C@@H]1CCCN1C(=O)[C@H](CCCCN)NC(=O)[C@H](CCCCN)NC(=O)[C@H](CC(C)C)NC(=O)[C@@H](N)CC(C)C)C(N)=O [LLKKPLLKKLLKKL]
- MIC [28]: 1.56 µM (≈ 2.61 µg/mL)
- MIC [29]: 12.5 µM (≈ 20.9 µg/mL)
- MIC [9]: 1.56 µM and > 0.78 µM

SMILES: CC[C@H](C)[C@H](NC(=O)[C@@H](N)CCCN=C(N)N)C(=O)N[C@@H](CCCN=C(N)N)C(=O)N[C@@H](CC(C)C)C(=O)N[C@@H](CC(C)C)C(=O)N[C@@H](CCC(N)=O)C(=O)N[C@@H](CCCN=C(N)N)C(=O)N[C@@H](Cc1ccccc1)C(=O)N[C@@H](CC(N)=O)C(=O)N[C@@H](CCCCN)C(=O)N[C@@H](CCCN=C(N)N)C(=O)O [RIRLLQRFNKR]
- MIC [30]: ≥ 512 µM
- MIC [31]: ≥ 256 µM
- MIC [32]: ≥ 1020 µM
- MIC [33]: ≥ 1020 µM

Now from value to compound:

- MIC [1]: 12.6 µM (≈ 16.1 µg/mL)
- MIC [2]: ≥ 100 µM
SMILES: CC[C@H](C)[C@H](NC(=O)[C@H](CC(C)C)NC(=O)[C@@H](N)CS)C(=O)N[C@@H](CCSC)C(=O)N[C@@H](CCCCN)C(=O)N[C@H](C(=O)N[C@@H](CCCN=C(N)N)C(=O)N[C@@H](CCCN=C(N)N)C(=O)N[C@@H](CCCCN)C(=O)N[C@@H](CCCCN)C(=O)O)C(C)C [CLIMKVRRKK]

- MIC [3]: 16 µM (≈ 30.8 µg/mL)
- MIC [4]: 8 µM (≈ 15.4 µg/mL)
- MIC [5]: ≥ 250 µM
SMILES: CC[C@H](C)[C@H](NC(=O)[C@H](C)NC(=O)[C@H](CC(N)=O)NC(=O)[C@@H]1CCCN1C(=O)[C@@H](NC(=O)[C@H](CC(C)C)NC(=O)[C@H](CO)NC(=O)[C@H](Cc1ccccc1)NC(=O)[C@H](CC(C)C)NC(=O)[C@@H](N)Cc1ccccc1)[C@@H](C)CC)C(=O)N[C@@H](CO)C(=O)NCC(=O)N[C@@H](CC(C)C)C(=O)N[C@@H](CC(C)C)C(=O)N[C@@H](CO)C(=O)N[C@@H](C)C(=O)N[C@@H](Cc1ccccc1)C(=O)N[C@H](C=O)CCCCN [FLFSLIPNAISGLLSAFK]

- MIC [6]: ≥ 36 µM
- MIC [7]: ≥ 36 µM
- MIC [8]: 4.5 µM (≈ 8 µg/mL)
- MIC [9]: 36 µM (≈ 64 µg/mL)
- MIC [10]: 4.5 µM (≈ 8 µg/mL)
- MIC [11]: 36 µM (≈ 64 µg/mL)
- MIC [12]: 4.5 µM (≈ 8 µg/mL)
- MIC [13]: ≥ 36 µM
SMILES: CC[C@H](C)[C@H](NC(=O)[C@@H](NC(=O)[C@H](CO)NC(=O)CN)C(C)C)C(=O)N[C@@H](CCCN=C(N)N)C(=O)N[C@@H](C)C(=O)N[C@@H](CC(C)C)C(=O)N[C@@H](CCSC)C(=O)N[C@@H](CCCN=C(N)N)C(=O)N[C@@H](CCSC)C(=O)N[C@@H](Cc1ccccc1)C(=O)N[C@@H](C)C(=O)N[C@@H](CCCN=C(N)N)C(=O)N[C@@H](CC(C)C)C(=O)N[C@H](C(=O)NCC(=O)O)C(C)C [GSVIRALMRMFARLVG]

- MIC [6]: ≥ 67.9 µM
- MIC [7]: ≥ 33.9 µM
- MIC [8]: 8.48 µM (≈ 16 µg/mL)
- MIC [9]: 8.48 µM (≈ 16 µg/mL)
- MIC [10]: 8.48 µM (≈ 16 µg/mL)
- MIC [12]: 4.24 µM (≈ 8 µg/mL)
- MIC [13]: ≥ 33.9 µM
SMILES: CSCC[C@H](NC(=O)[C@H](CC(C)C)NC(=O)[C@H](CC(C)C)NC(=O)[C@H](CCCCN)NC(=O)[C@H](CCCN=C(N)N)NC(=O)[C@H](CCC(=O)O)NC(=O)[C@H](CC(C)C)NC(=O)[C@H](CC(C)C)NC(=O)[C@H](CO)NC(=O)[C@@H](N)CCSC)C(=O)N[C@@H](Cc1cnc[nH]1)C(=O)N[C@@H](Cc1ccccc1)C(=O)N[C@@H](CC(C)C)C(=O)N[C@@H](CCCN=C(N)N)C(=O)N[C@H](C(=O)O)C(C)C [MSLLERKLLMHFLRV]

- MIC [30]: ≥ 1020 µM
- MIC [31]: ≥ 1020 µM
- MIC [32]: ≥ 1020 µM
- MIC [33]: ≥ 1020 µM
SMILES: C[C@@H](O)[C@H](NC(=O)[C@H](CCCCN)NC(=O)[C@H](CCCCN)NC(=O)[C@H](CO)NC(=O)[C@H](CCCN=C(N)N)NC(=O)[C@H](Cc1c[nH]c2ccccc12)NC(=O)[C@H](CCC(=O)O)NC(=O)[C@H](CCCN=C(N)N)NC(=O)[C@H](CO)NC(=O)[C@H](CCCCN)NC(=O)[C@@H](N)CCCN=C(N)N)C(=O)N[C@@H](CCC(N)=O)C(=O)N1CCC[C@H]1C(=O)N[C@@H](CCCN=C(N)N)C(=O)N[C@@H](CCCN=C(N)N)C(=O)N1CCC[C@H]1C(=O)N[C@@H](CCCN=C(N)N)C(=O)O [RKSREWRSKKTQPRRPR]

- MIC [15]: 2.8 µM (≈ 6.08 µg/mL)
- MIC [34]: 2.8 µM (≈ 6.08 µg/mL)
- MIC [35]: 1.6 µM (≈ 3.47 µg/mL)
- MIC [36]: 2.8 µM (≈ 6.08 µg/mL)
SMILES: CC(C)[C@H](N)C(=O)N[C@@H](CCCCN)C(=O)N[C@@H](CCCN=C(N)N)C(=O)N[C@@H](Cc1c[nH]c2ccccc12)C(=O)N[C@@H](CCCCN)C(=O)N[C@@H](CCCCN)C(=O)N[C@@H](Cc1c[nH]c2ccccc12)C(=O)N[C@@H](CCCCN)C(=O)N[C@@H](CCCN=C(N)N)C(=O)N[C@@H](CCCCN)C(=O)N[C@@H](Cc1c[nH]c2ccccc12)C(=O)N[C@@H](CCCCN)C(=O)N[C@@H](CCCCN)C(=O)N[C@@H](Cc1c[nH]c2ccccc12)C(=O)N[C@H](C(N)=O)C(C)C [VKRWKKWKRKWKKWV]
